Several values for one entry are separate records, joined by “and”; a condition that tells them apart may be missing. Equal values may be shown once. Read-outs that look alike come from different tables or passages of the source.
Experiments:
Assay type in all cases: cell-based
[1] = molecular target: HRH2 (Homo sapiens, UniProt P25021); test: SAFETYscan cAMP HRH2 Agonist
Text: (§1) Supplement jm3c00155_si_002.xlsx, sheet "SAFETYScan" | column: RC50 (uM); Max Response

[2] = molecular target: HRH1 (Homo sapiens, UniProt P35367); test: SAFETYscan Calcium Flux HRH1 Antagonist
Sequence of HRH1 (P35367 whole entry): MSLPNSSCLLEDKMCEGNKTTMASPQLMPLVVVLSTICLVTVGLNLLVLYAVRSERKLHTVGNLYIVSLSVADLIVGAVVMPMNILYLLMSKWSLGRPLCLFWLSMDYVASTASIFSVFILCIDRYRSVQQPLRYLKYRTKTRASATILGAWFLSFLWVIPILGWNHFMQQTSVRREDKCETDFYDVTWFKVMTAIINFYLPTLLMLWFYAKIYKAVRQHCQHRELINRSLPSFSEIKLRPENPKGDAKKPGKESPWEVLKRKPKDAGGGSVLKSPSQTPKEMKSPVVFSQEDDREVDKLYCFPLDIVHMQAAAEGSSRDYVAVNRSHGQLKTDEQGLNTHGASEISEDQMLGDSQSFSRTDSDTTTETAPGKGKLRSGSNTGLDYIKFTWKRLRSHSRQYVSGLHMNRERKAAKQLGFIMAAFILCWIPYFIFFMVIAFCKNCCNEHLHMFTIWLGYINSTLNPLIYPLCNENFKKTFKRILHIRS
Text: as §1

[3] = molecular target: T1, CHRM1 (Homo sapiens, UniProt P11229); test: SAFETYscan Calcium Flux CHRM1 Antagonist
T1 sequence (P11229 1-460): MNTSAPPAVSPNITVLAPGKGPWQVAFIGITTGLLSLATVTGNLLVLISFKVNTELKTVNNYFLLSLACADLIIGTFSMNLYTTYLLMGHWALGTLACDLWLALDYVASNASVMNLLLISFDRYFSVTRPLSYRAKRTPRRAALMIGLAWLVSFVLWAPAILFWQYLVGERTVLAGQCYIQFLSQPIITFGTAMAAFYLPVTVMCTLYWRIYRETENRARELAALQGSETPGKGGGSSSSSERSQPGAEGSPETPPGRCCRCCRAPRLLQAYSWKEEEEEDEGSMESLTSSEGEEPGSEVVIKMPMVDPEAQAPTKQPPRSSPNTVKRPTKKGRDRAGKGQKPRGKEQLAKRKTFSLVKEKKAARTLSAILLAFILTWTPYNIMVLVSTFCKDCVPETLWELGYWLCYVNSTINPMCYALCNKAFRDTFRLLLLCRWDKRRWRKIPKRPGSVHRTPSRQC
Text: as §1

[4] = molecular target: T2, BCL6-SMRT (NCOR2) corepressor protein-protein interaction (Homo sapiens, UniProt P41182); test: NanoBRET cellular assay (HEK293T)
T2 construct: DNA encoding full length BCL6 and SMRT; expressed in transfected cells; host or cells: HEK293T
Protocol: Test compounds in DMSO or DMSO alone
concentration in 0.7% v/v DMSO final.
(also called NCOR2) corepressor protein-protein interaction. DNA encoding full length BCL6 and SMRT
fusion proteins BCL6-nanoLuc and SMRT-HaloTag, respectively. HEK293T cells were plated […] in T75
At the time of assay, compounds
dispensing (Labcyte Inc.). Frozen transfected HEK293T cells were thawed, centrifuged and freezing
(§2) DMSO final concentration.
(§3) After a short centrifugation the
(1st emission filter) / 450-80 nm (2nd emission filter). The % inhibition at each test concentration was
sigmoidal four-parameter logistic fit equation. […]

[5] = molecular target: ADRB1 (Homo sapiens, UniProt P08588); test: SAFETYscan cAMP ADRB1 Agonist
Sequence of ADRB1 (P08588 whole entry): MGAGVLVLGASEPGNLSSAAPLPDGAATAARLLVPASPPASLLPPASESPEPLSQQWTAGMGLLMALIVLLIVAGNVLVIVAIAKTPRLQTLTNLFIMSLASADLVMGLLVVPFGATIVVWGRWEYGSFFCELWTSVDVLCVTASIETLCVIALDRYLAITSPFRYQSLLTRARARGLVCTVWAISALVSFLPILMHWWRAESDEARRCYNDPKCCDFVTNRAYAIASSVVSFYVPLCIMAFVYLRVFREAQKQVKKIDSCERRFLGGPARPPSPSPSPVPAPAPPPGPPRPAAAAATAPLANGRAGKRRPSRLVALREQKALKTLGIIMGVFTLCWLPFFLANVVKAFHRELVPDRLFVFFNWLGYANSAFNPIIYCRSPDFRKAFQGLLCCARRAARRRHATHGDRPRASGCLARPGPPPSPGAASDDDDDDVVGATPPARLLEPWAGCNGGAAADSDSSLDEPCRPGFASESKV
Text: as §1

[6] = system: HT; test: 14-day cell proliferation assay, HT; conditions: Homo sapiens, 14-day assay
Text: as §2, §3
(1st emission filter) / 450-80 nm (2nd emission filter). The % inhibition at each test concentration was […]
sigmoidal four-parameter logistic fit equation.
2.3 Cell proliferation assay
Aldrich) supplemented with 10% FBS (Gibco). Compounds were initially dispensed into 96-well U-bottom […]
transferred onto the cells.
Assay plates containing cells
(Beckman Coulter). The volume of medium containing 2500 cells in the control well was calculated and this volume of cells was transferred from every well of the assay plates to the corresponding well of the fresh plates containing compound. After 14 days, CellTiter Glo reagent (Promega) was added to the medium in each well of the assay plate at a ratio of 1:2, mixed on a plate shaker, then incubated at room temperature for 10 minutes. Luminescence was measured using an Envision plate reader (Perkin Elmer) and the relative luminescence at each compound concentration, compared to DMSO alone, was calculated. GI50 were determined using a 4-parameter curve fit in Dotmatics (Bishops Stortford, UK).

[7] = molecular target: T1, CHRM1; test: SAFETYscan Calcium Flux CHRM1 Agonist
Text: as §1

[8] = molecular target: CNR2 (Homo sapiens, UniProt P34972); test: SAFETYscan cAMP CNR2 Antagonist
Sequence of CNR2 (P34972 whole entry): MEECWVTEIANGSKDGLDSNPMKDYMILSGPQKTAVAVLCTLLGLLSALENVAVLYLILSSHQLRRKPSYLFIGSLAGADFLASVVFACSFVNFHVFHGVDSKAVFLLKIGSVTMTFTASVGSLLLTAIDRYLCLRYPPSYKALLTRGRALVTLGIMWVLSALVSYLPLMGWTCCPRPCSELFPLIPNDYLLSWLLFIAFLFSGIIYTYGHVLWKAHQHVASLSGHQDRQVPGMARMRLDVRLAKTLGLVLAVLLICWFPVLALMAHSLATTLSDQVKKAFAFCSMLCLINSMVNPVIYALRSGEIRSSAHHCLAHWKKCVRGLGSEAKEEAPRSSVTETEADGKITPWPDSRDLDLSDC
Text: as §1

[9] = molecular target: CNR1 (Homo sapiens, UniProt P21554); test: SAFETYscan cAMP CNR1 Antagonist
Sequence of CNR1 (P21554 whole entry): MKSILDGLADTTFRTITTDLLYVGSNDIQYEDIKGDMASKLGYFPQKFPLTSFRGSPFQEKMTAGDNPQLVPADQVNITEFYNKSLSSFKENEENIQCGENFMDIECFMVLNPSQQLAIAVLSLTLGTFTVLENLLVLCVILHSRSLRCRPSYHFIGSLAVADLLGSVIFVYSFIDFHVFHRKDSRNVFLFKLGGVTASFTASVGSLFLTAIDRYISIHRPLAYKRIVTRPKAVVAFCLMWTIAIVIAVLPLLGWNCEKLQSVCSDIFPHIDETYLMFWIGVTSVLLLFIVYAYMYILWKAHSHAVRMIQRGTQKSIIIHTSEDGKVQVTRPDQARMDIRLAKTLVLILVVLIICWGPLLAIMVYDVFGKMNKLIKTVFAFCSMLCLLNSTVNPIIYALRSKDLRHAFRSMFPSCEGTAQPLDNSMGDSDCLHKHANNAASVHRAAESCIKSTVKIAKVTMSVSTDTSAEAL
Text: as §1

[10] = molecular target: T3, EDNRA (Homo sapiens, UniProt P25101); test: SAFETYscan Calcium Flux EDNRA Antagonist
T3 sequence (P25101 21-427): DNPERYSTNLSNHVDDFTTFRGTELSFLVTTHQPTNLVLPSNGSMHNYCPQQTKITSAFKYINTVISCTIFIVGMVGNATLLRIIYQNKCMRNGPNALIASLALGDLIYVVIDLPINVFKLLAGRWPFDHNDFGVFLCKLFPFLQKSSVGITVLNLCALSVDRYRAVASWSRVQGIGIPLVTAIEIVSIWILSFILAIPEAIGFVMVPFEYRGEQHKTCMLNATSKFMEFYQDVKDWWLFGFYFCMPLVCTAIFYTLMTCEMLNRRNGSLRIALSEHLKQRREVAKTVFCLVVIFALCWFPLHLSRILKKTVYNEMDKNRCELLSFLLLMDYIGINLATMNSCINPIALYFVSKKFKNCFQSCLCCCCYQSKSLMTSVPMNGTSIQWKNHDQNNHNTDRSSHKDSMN
Text: as §1

[11] = molecular target: OPRM1 (Homo sapiens, UniProt P35372); test: SAFETYscan cAMP OPRM1 Agonist
Sequence of OPRM1 (P35372 whole entry): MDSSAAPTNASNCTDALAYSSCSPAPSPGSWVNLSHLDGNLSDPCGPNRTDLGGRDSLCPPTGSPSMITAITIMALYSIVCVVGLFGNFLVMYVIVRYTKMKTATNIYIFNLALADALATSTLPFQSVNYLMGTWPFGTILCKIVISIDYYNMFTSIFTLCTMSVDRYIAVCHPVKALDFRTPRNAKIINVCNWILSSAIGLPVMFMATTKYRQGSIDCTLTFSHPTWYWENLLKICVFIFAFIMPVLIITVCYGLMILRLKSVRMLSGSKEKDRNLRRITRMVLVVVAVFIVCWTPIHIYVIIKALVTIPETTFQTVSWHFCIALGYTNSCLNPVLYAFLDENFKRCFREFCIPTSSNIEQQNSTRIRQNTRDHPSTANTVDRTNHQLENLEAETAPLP
Text: as §1

[12] = molecular target: ADORA2A (Homo sapiens, UniProt P29274); test: SAFETYscan Calcium Flux ADORA2A Agonist
Sequence of ADORA2A (P29274 whole entry): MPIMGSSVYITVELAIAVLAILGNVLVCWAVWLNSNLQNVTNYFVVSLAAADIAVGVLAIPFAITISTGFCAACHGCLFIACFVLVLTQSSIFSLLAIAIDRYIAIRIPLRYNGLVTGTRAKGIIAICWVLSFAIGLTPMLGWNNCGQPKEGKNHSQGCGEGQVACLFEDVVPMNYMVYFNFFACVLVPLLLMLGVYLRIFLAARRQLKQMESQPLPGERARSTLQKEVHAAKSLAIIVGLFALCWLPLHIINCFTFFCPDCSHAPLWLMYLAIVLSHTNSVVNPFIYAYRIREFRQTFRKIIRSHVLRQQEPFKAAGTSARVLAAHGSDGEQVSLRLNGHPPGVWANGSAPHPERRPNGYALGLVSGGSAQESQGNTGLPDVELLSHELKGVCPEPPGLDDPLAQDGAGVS
Text: as §1

Sequence of HRH2 (P25021 whole entry): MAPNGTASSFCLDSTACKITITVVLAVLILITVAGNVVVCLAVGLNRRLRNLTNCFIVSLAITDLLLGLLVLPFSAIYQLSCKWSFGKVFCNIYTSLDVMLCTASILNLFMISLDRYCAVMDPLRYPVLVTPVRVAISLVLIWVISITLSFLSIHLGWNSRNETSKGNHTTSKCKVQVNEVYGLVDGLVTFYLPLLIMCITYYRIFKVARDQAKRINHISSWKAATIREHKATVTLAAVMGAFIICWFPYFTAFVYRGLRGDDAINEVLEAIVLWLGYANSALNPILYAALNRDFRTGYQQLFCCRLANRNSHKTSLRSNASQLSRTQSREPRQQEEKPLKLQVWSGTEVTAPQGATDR

`Cn1c(=O)c2c(c3cc(Nc4ccnc(F)c4Cl)ccc31)N[C@@H](C1CC1)C(F)(F)CO2` [compound 17, (S)-10-((3-chloro-2-fluoropyridin-4-yl)amino)-2-cyclopropyl-3,3-difluoro-7-methyl-1,2,3,4-tetrahydro-[1,4]oxazepino[2,3-c]quinolin-6(7H)-one] was tested, and the Emax ([1]; read-out: Max Response) was 0%, the EC50 ([1]; read-out: RC50 (EC50)) was > 10000 nM and the Emax ([2]; read-out: Max Response) was 14.2%. The IC50 ([2]; read-out: RC50 (IC50)) was > 10000 nM, the IC50 [3] was > 10000 nM and the Emax ([3]; CHRM1, Calcium Flux, Antagonist, read-out: Max Response) was 1.21%. For the same compound, the IC90 ([4]; HEK-293T, Table S2, read-out: BCL6 NanoBRET IC90 individual replicates) was 140 nM, the calculated free (unbound) cellular IC90 ([4]; HEK-293T, calculated free cellular IC90 from NanoBRET assay) was 48 nM and the IC90 ([4]; HEK-293T, geometric mean of at least three replicates, read-out: NanoBRET IC90) was 140 nM. For the same compound, the “BCL6 NanoBRET pIC50 mean” value ([4]; Table S2) was 7.6643, the IC50 ([4]; geometric mean of at least three replicates, read-out: NanoBRET IC50) was 22 nM and the IC50 ([4]; single replicates, Table S2, listed as CCT374705, 17, read-out: BCL6 NanoBRET IC50 individual replicates) was 21.8 nM and 22.2 nM. For the same compound, the IC50 ([4]; single replicates, Table S2, read-out: BCL6 NanoBRET IC50 individual replicates) was 25.1 nM and 17.3 nM and 24.3 nM and 18.4 nM and 20.9 nM and 24.2 nM and 77.1 nM and 15.6 nM and 11.1 nM and 15.4 nM and 40.7 nM and 25.3 nM and 23.2 nM and 13 nM and 32.6 nM and 29.5 nM and 10.1 nM and 12.1 nM and 44.2 nM and 19.7 nM and 14.6 nM and 25.2 nM, the IC50 ([4]; supplement, read-out: BCL6 NanoBRET IC50 Geometric Mean) was 21.7 nM and the Emax ([5]; read-out: Max Response) was 0%. For the same compound, the EC50 ([5]; read-out: RC50 (EC50)) was > 10000 nM, the GI50 [6] was 545 nM and the EC50 [7] was > 10000 nM. For the same compound, the Emax ([7]; CHRM1, Calcium Flux, Agonist, read-out: Max Response) was 1.44%, the IC50 [8] was > 10000 nM and the Emax ([8]; CNR2, cAMP, Antagonist, read-out: Max Response) was 0%. The IC50 [9] was > 10000 nM, the Emax ([9]; CNR1, cAMP, Antagonist, read-out: Max Response) was 0% and the Emax ([10]; read-out: Max Response) was 0%. For the same compound, the IC50 ([10]; read-out: RC50 (IC50)) was > 10000 nM, the EC50 [11] was > 10000 nM and the Emax ([11]; OPRM1, cAMP, Agonist, read-out: Max Response) was 13.3%. The Emax ([12]; read-out: Max Response) was 0% and the EC50 ([12]; read-out: RC50 (EC50)) was > 10000 nM.

Source: PMC10150366, “Discovery of an In Vivo Chemical Probe for BCL6 Inhibition by Optimization of Tricyclic Quinolinones” (Journal of Medicinal Chemistry, 2023)
